Bridges are numbered along the chain shown (N, C = ends). Roman numbers before positions name the chains, in order. Where no end group is shown, it is not given here.

In data set [1] the test system is TGF-β1 mRNA in PC3 cells. The data set can be described thus: siRNA transfection of PC3 cells, RT-PCR of TGF-beta1. The conditions noted are these: human PC3 cells. The data set is classed as cell-based. How it is done: (§1) • 4. Human prostate carcinoma cell-PC3 was used for detection of the gene expression knockdown. A series of standard transfection experiments were carried out using the protocol provided by the vendor (Invitrogen) with the siRNA duplexes identified in step 2 accordingly. • 5. Total RNA samples were isolated and subjected to RT-PCR analysis using the respective PCR primers identified in step 3 above.
(§2) Among ten in silico designed 25 mer siRNA sequences, we first pick three for testing. Before testing those siRNA oligos (synthesized by Qiagen) in the corresponding cells, such as human PC-3 cell (a bone metastasis of a […] prostatic adenocarcinoma), we first use RT-PCR to survey the presence of the target gene expression in the total RNA samples (FIG. 14). […] We further surveyed the expression of these three genes in the mouse C166 cell. […] Therefore, we can transfect the three selected siRNA oligos targeting a particular gene into the corresponding cell and then evaluate their gene silencing potential, followed by total RNA isolation and RT-PCR analysis. Three doses were used for each transfection on the 6-well plate: 0.5 ug, 1 ug and 2 ug, with Lipo2000 following the vendor's direction. […] The RT-PCR products were also subjected to the gel electrophoreses and quantification. […]

Data set [2] deals with Cox-2 mRNA in PC3 cells. The data set can be described thus: siRNA transfection of PC3 cells, RT-PCR of Cox-2. As to conditions: human PC3 cells. The data set is classed as cell-based. The protocol:
as §1, §2

In data set [3] the test system is lung, liver, and kidney. The data set can be described thus: In vivo toxicity of HK peptides after intravenous administration. As to conditions: mice, 1000 μg, 24 h after injection; preliminary studies. How it is done:
H2K4b, had the strongest antifungal effect reducing growth of C. albicans to nearly 40% at 37.5 μg/ml (3.4 μM) and 85% at 50 μg/ml (4.5 μM). […] Relative to in vitro toxicity, the in vivo toxicity differences among these peptides are more striking. […] Of the three organs examined, the kidney appears to be the most sensitive to these peptides. Relative to H2K4b, a decrease in cationic charge in the terminal branches of H3K4b and H3K(G)K4b may, in part, account for their reduced toxicity in vitro and in vivo; the reduction in charge may decrease their interaction with negatively charged cell membranes. With eight additional glycines, H3K(G)4b polymer has a reduced charge per total number of amino acids relative to H3K4b. Because there are five lysines in each terminal arm of H3K(G)4b and H3K4b, however, we doubt that minimal charge differences readily explain the reduced toxicity of H3K(G)4b relative to H3K4b. An alternative possibility is that glycines may disrupt alpha helices in the terminal branches, thereby enhancing the flexibility of the polymer and allowing enzymatic degradation. Several secondary structure programs for peptides predict a marked difference in the alpha helical content between a glycine containing peptide, H3K(G)4b, and the non-glycine containing peptides, H2K4b and H3K4b.

The subject of data set [4] is Hoxb13 mRNA in PC3 cells. The data set can be described thus: siRNA transfection of PC3 cells, RT-PCR of Hoxb13. The conditions noted are these: human PC3 cells. The data set is classed as cell-based. The protocol:
as §1, §2

With “hmTF-2: 25-mer siRNA duplex targeting human and mouse TGF-β1; sense 5′-CCCAAGGGCUACCAUGCCAACUUCU-3′ (SEQ ID NO: 11) (antisense AGAAGUUGGCAUGGUAGCCCUUGGG; listed as RNA, further chemistry not given here)”, the “TGF-β1 gene expression / silencing activity (RT-PCR)” value in data set [1] is recorded as “potent”.
Regarding “hmCX-1: 25-mer siRNA duplex targeting human and mouse COX-2; sense 5′-GGUCUGGUGCCUGGUCUGAUGAUGU-3′ (SEQ ID NO: 9) (antisense ACAUCAUCAGACCAGGCACCAGACC; listed as RNA, further chemistry not given here)”, the “Cox-2 gene expression / silencing activity (RT-PCR)” value in data set [2] is “potent”.
Regarding “I: KHHHKHHHKHHHKHHHKKKK-NH2 / II: KHHHKHHHKHHHKHHHK / III: KHHHKHHHKHHHKHHHK / IV: KHHHKHHHKHHHKHHHK (amide I:18-IV:C, I:19-III:C, I:20-II:C) [H3K4b]”, the organ toxicity result in data set [3] was “minimally toxic to the kidney”.
Take “hmHX-1: 25-mer siRNA duplex targeting human and mouse HoxB13; sense 5′-GGUGGCUGGAACAGCCAGAUGUGUU-3′ (SEQ ID NO: 7) (antisense AACACAUCUGGCUGUUCCAGCCACC; listed as RNA, further chemistry not given here)”: in data set [4], the “Hoxb13 gene expression / silencing activity (RT-PCR)” value was “potent”.

These data come from patent publication USRE46873E1, “Multi-targeted RNAi therapeutics for scarless wound healing of skin” (Sirnaomics, Inc., priority 2007, dated 2018).
